Where no end group is shown, it is not given here.
Experiment: CD spectroscopy of prosegment
Format: physicochemical
Settings: PSwt 0.1 mg/ml, pure water or 20 mM acetic acid/NaOH pH 5.3 with and without 100 mM NaCl
Method: CD data were collected using a Jasco J-810 spectropolarimeter (Jasco corp., Tokyo, Japan), over a wavelength range of 250 nm to 190 nm with a 1 nm resolution, 100 nm/min scan rate, 0.25 s response time and four-fold accumulation of scans. PSwt was diluted to 0.1 mg/ml in either pure water or 20 mM acetic acid/NaOH buffer at pH 5.3, with and without 100 mM NaCl, and loaded into a cell with a 0.1 cm path length. Background spectra were subtracted and the sample spectra converted to units of mean residue ellipticity, MRE, using MRE = MRW ×θ λ/(10×d×c), where MRW is the mean residue weight (molecular weight/number of residues), θ λ is the measured ellipticity at a particular wavelength (degrees), d is the pathlength (0.1 cm) and c is the protein concentration (g/cm^3).
Supplementary file pone.0101339.s006.tif: Figure S6 CD spectra of prosegment. Far-UV CD spectra of PSwt, in ddH2O and in 20 mM acetic acid/NaOH, at pH 5.3, with and without 100 mM NaCl added. […] Anal Biochem 287: 243–251]. (TIF) Click here for additional data file.

## LVKVPLVRKKSLRQNLIKNGKLKDFLKTHKHNPASKYFPEAAAL [WT]
  secondary structure of free PS by CD: A negative band at 198 nm is characteristic of random coil structure
Listed as PS
  secondary structure of free PS by CD: unstructured on its own
